Source: patent US20250374927A1, “HERBICIDAL COMBINATIONS AND A METHOD FOR CONTROLLING UNDESIRED VEGETATION” (UPL Mauritius Limited, priority 2022, published 2025)

Tested on: Borreria verticillata
Assay: Post-emergence herbicidal efficacy of L-glufosinate ammonium, additional herbicides and their combinations (observed vs Colby expected)
Format: in vivo
Protocol: Methodology: Trials were carried out to evaluate the efficacy of the combination comprising L-glufosinate ammonium and the additional herbicides on Spermacoce genus weeds.
The soil used was sandy clay loam-sand: 68.0%; silt: 8.0%; clay: 24.0%.
All treatments were in 4 replications per treatment with a spray volume of about 150 L/ha.
Efficacy Evaluation: The expected efficacy of the combination comprising L-glufosinate ammonium and additional herbicides was calculated using the well-established Colby method.
In the Colby method, the expected (or predicted) response of a combination of herbicides is calculated by taking the product of the observed response for each individual component of the combination when applied alone, divided by 100, and subtracting this value from the sum of the observed response for each component when applied alone. An unexpected enhancement in efficacy of the combination is then determined by comparing the observed response of the combination to the expected (or predicted) response as calculated from the observed response of each individual component alone. If the observed response of the combination is greater than the expected (or predicted) response, or stated conversely, if the difference between the observed and expected response is greater than zero, then the combination is said to be synergistic or unexpectedly effective (Colby, S. R., Weeds, 1967(15), p. 20-22). The Colby method requires only a single dose of each herbicide applied alone and the mixture of both doses. The formula used to calculate the expected efficacy (EE) which was compared with the observed efficacy (OE) to determine the efficacy of the present disclosure is explained hereinbelow:
The expected efficacy for a combination of two active ingredients is as follows:
The expected efficacy for a combination of three active ingredients is as follows: […]

C[N+](C)(C)CCO.O=C([O-])COc1ccc(Cl)cc1Cl [2,4-D choline, 2,4-dichlorophenoxyacetic acid (2,4-D) choline]
Observed efficacy (%) of 2,4-D choline (137 g a.i./ha) (7 DAA, 137 g a.i./ha, Example 9): 30% | Observed efficacy (%) of 2,4-D choline (228 g a.i./ha) (7 DAA, 228 g a.i./ha, Example 10): 30%

COc1c(Cl)ccc(Cl)c1C(=O)O [Dicamba]
Observed efficacy (%) of Dicamba (228 g a.i./ha) (7 DAA, 228 g a.i./ha, Example 1): 45% | Observed efficacy (%) of Dicamba (228 g a.i./ha) (28 DAA, 228 g a.i./ha, Example 1): 40%

COc1c(Cl)ccc(-c2nc(C(=O)OCc3ccccc3)c(Cl)c(N)c2F)c1F [Florpyrauxifen-benzyl]
Observed efficacy (%) of Florpyrauxifen-benzyl (15 g a.i./ha) (7 DAA, Example 2): 30% | Observed efficacy (%) of Florpyrauxifen-benzyl (15 g a.i./ha) (28 DAA, Example 2): 20%

COCc1cnc(C2=NC(C)(C(C)C)C(=O)N2)c(C(=O)O)c1 (stereo not drawn) [Imazamox]
Observed efficacy (%) of Imazamox (21 g a.i./ha) (3 DAA, 21 g a.i./ha, Example 6): 10%

Cc1cnc(C2=NC(=O)C(C)(C(C)C)N2)c(C(=O)O)c1 (stereo not drawn) [Imazapic]
Observed efficacy (%) of Imazapic (59 g a.i./ha) (3 DAA, Example 7): 10% | Observed efficacy (%) of Imazapic (59 g a.i./ha) (7 DAA, Example 7): 20% | Observed efficacy (%) of Imazapic (59 g a.i./ha) (14 DAA, Example 7): 35% | Observed efficacy (%) of Imazapic (59 g a.i./ha) (21 DAA, Example 7): 30% | Observed efficacy (%) of Imazapic (59 g a.i./ha) (28 DAA, Example 7): 40% | Observed efficacy (%) of Imazapic (59 g a.i./ha) (35 DAA, Example 7): 60%

CP(=O)(O)CC[C@H](N)C(=O)O.N [L-glufosinate ammonium]
Observed efficacy (%) of L-glufosinate ammonium (Glufosinate-P-ammonium) (150 g a.i./ha) (3 DAA, Example 6): 55% | Observed efficacy (%) of L-glufosinate ammonium (Glufosinate-P-ammonium) (150 g a.i./ha) (3 DAA, Example 7): 50% | Observed efficacy (%) of L-glufosinate ammonium (Glufosinate-P-ammonium) (150 g a.i./ha) (3 DAA, Example 8): 50% | Observed efficacy (%) of L-glufosinate ammonium (Glufosinate-P-ammonium) (150 g a.i./ha) (7 DAA, Example 1): 65% | Observed efficacy (%) of L-glufosinate ammonium (Glufosinate-P-ammonium) (150 g a.i./ha) (7 DAA, Example 2): 65% | Observed efficacy (%) of L-glufosinate ammonium (Glufosinate-P-ammonium) (150 g a.i./ha) (7 DAA, Example 3): 85% | Observed efficacy (%) of L-glufosinate ammonium (Glufosinate-P-ammonium) (150 g a.i./ha) (7 DAA, Example 5): 90% | Observed efficacy (%) of L-glufosinate ammonium (Glufosinate-P-ammonium) (150 g a.i./ha) (7 DAA, Example 7): 80% | Observed efficacy (%) of L-glufosinate ammonium (Glufosinate-P-ammonium) (150 g a.i./ha) (7 DAA, Example 8): 80% | Observed efficacy (%) of L-glufosinate ammonium (Glufosinate-P-ammonium) (150 g a.i./ha) (14 DAA, Example 3): 80% | Observed efficacy (%) of L-glufosinate ammonium (Glufosinate-P-ammonium) (150 g a.i./ha) (14 DAA, Example 5): 80% | Observed efficacy (%) of L-glufosinate ammonium (Glufosinate-P-ammonium) (150 g a.i./ha) (14 DAA, Example 7): 95% | Observed efficacy (%) of L-glufosinate ammonium (Glufosinate-P-ammonium) (150 g a.i./ha) (14 DAA, Example 8): 95% | Observed efficacy (%) of L-glufosinate ammonium (Glufosinate-P-ammonium) (150 g a.i./ha) (21 DAA, Example 7): 90% | Observed efficacy (%) of L-glufosinate ammonium (Glufosinate-P-ammonium) (150 g a.i./ha) (21 DAA, Example 8): 90% | Observed efficacy (%) of L-glufosinate ammonium (Glufosinate-P-ammonium) (150 g a.i./ha) (28 DAA, Example 1): 95% | Observed efficacy (%) of L-glufosinate ammonium (Glufosinate-P-ammonium) (150 g a.i./ha) (28 DAA, Example 2): 95% | Observed efficacy (%) of L-glufosinate ammonium (Glufosinate-P-ammonium) (150 g a.i./ha) (28 DAA, Example 4): 90% | Observed efficacy (%) of L-glufosinate ammonium (Glufosinate-P-ammonium) (150 g a.i./ha) (28 DAA, Example 7): 90% | Observed efficacy (%) of L-glufosinate ammonium (Glufosinate-P-ammonium) (150 g a.i./ha) (28 DAA, Example 8): 90% | Observed efficacy (%) of L-glufosinate ammonium (Glufosinate-P-ammonium) (150 g a.i./ha) (35 DAA, Example 4): 85% | Observed efficacy (%) of L-glufosinate ammonium (Glufosinate-P-ammonium) (150 g a.i./ha) (35 DAA, Example 7): 85% | Observed efficacy (%) of L-glufosinate ammonium (Glufosinate-P-ammonium) (150 g a.i./ha) (35 DAA, Example 8): 85%

CS(=O)(=O)c1ccc(C(=O)C2C(=O)CCCC2=O)c([N+](=O)[O-])c1 [Mesotrione]
Observed efficacy (%) of Mesotrione (360 g a.i./ha) (28 DAA, Example 4): 75% | Observed efficacy (%) of Mesotrione (360 g a.i./ha) (35 DAA, Example 4): 75%

CSc1nnc(C(C)(C)C)c(=O)n1N [Metribuzin]
Observed efficacy (%) of Metribuzin (360 g a.i./ha) (7 DAA, Example 5): 90% | Observed efficacy (%) of Metribuzin (360 g a.i./ha) (14 DAA, Example 5): 30%

CCOc1cc(Oc2ccc(C(F)(F)F)cc2Cl)ccc1[N+](=O)[O-] [Oxyfluorfen]
Observed efficacy (%) of Oxyfluorfen (430 g a.i./ha) (7 DAA, Example 3): 65% | Observed efficacy (%) of Oxyfluorfen (430 g a.i./ha) (14 DAA, Example 3): 70%
